Legend:
[1] = test system: pulmonary aterial hypertension; conditions: injected intraperitoneally; cited from earlier work
DDAH2 = DDAH2 gene expression (real-time RT-PCR) in endothelial cells; format: cell-based; conditions: human umbilical endothelial cells, 24 hours, dose dependent, FIG. 1B
Method: (§1) Human umbilical endothelial cells were seeded in 6-well plates (50,000 cells per well) and incubated with EGM (endothelial cell growth medium with bullet kit, Lonza) overnight. Then, triplicate wells were treated with indicated concentrations of cerivastatin in 2 ml of EGM. After 24 hours, total RNA was extracted using the RNeasy Kit (Qiagen, Valencia, Calif. After reverse transcription (RT) using the High Capacity cDNA Reverse Transcription Kit (Applied Biosystems, Foster City, Calif.), PCR was performed using an ABI Prism 7500 Sequence Detection System (Applied Biosystems, Foster City, Calif.) and QuantiTect SYBR Green PCR Master Mix (Qiagen, Valencia, Calif.). All reactions were carried out in triplicate, and each mRNA copy level was quantified using comparative CT method. Expression of actin was used as an endogenous control in all experiments and relative fold changes were calculated. All data were expressed as the means±standard deviation. The gene-specific forward and reverse primer sequences were • 5′-[…]-3′(SEQ ID NO: 2) and 5′-[…]-3′ (SEQ ID NO: 3) for actin; • 5′-[…]-3′ (SEQ ID NO: 4) and 5′-ggggtgttgaagcaat-3′ (SEQ ID NO: 5) for DDAH-1; • 5′-[…]-3′ (SEQ ID NO: 6) and 5′-[…]-3′ (SEQ ID NO: 7) for DDAH-2.

CCR2 = CCR2 gene expression (real-time RT-PCR) in THP-1 cells; format: cell-based; conditions: human THP-1 cells, TNF-α + 10 μM statin, FIG. 2B
Method: THP-1 cells were obtained from the American Tissue Type Culture Collection (ATCC). Cells were maintained in RPMI-1640 (Mediatech, Manassas, Va.) containing 10% fetal bovine serum (FBS; Sigma-Aldrich) and 1% penicillin/streptomycin (Sigma-Aldrich), and incubated in a humidified incubator containing 5% CO2/95% air at 37° C. In all experiments, cells were seeded at the concentration of 5×10^5 cells/mL in 12 well plates and then various statins were added to the medium. After 1 h, […] at a final concentration of 100 ng/ml or TNF-[…] at a final concentration of 10 ng/mL was added to the cultures. Cell pellets were collected for RNA and protein isolation.
Total RNA was extracted using the RNeasy Kit (Qiagen, Valencia, Calif.) according to the manufacturer's instructions. After reverse transcription (RT) using the High Capacity cDNA Reverse Transcription Kit (Applied Biosystems, Foster City, Calif.), PCR was performed using an ABI Prism 7500 Sequence Detection System (Applied Biosystems, Foster City, Calif.) and QuantiTect SYBR Green PCR Master Mix (Qiagen, Valencia, Calif.). All reactions were carried out in triplicate, and each mRNA copy level was quantified using comparative CT method. Expression of actin was used as an endogenous control in all experiments and relative fold changes were calculated. All data were expressed as the means±standard deviation. […]

DDAH1 = DDAH1 gene expression (real-time RT-PCR) in endothelial cells; format: cell-based; conditions: human umbilical endothelial cells, 24 hours, FIG. 1A
Method: as §1

rat model of PAH [2] = experiment: Echocardiography in MCT rat model of PAH; format: in vivo; conditions: intratracheal, twice weekly, 2 mg/ml in PBS
Method: PAH was induced in adult male Sprague-Dawley rats ( 375 to 425 g, n=12, Harlan Laboratories) by a single, subcutaneous injection of monocrotnil (MCT) (60 mg/kg; n=24). Schultze, A. E. and Roth, R. A. J. Toxicol. Environ. Health. B, Crit. Rev. 1(4): 271-346 (1998). The animals injected with MCT were randomly assigned to 2 groups that received intratracheal (I.T.) aerosol instillation (MicroSprayer® Aerosolizer Model IA-1B, PennCentury, Inc.) of PBS twice weekly (200 μl; n=6), and a second group received IT. aerosol instillation of Cerivastatin twice weekly (2 mg/ml in PBS; n=6 I.T. instillations of PBS and Cerivastatin were administered the day of MCT injection until the rats were euthanized on day 42. Echocardiography was performed at day 14, 28, and 42. Right heart catheterization was performed on day 42 before being euthanized. Sedation was induced by placing the rat in an anesthesia induction chamber with gas flow at 1 l/min, and the isoflurane was delivered via vaporizer at 3-4%. After induction, the rat was intubated and remained anesthetized with inhalant isoflurane at 1% for echo and 2% for right heart catheterization. After shaving the chest, 70% isopropyl alcohol was applied as the ultrasound transmission media and transthoracic echocardiography was performed (GE vivid i with […]-RS linear array transducer, 5.0-13.0 MHz). The 2-D modality was applied to measure PA diameter at the level of the pulmonary outflow tract from the parasternal short-axis view. PA acceleration time (PAAT) and PA flow velocity time integral (VTI) were measured using pulse-wave Doppler with the sample volume centrally positioned in the PA distal to the pulmonary valve. Angle correction was used to adjust the pulse-wave cursor such that it was positioned parallel to pulmonary artery flow. By combining PA VTI with the PA cross-sectional area, echocardiographically derived stroke volume was determined. M-mode was applied to measure right ventricular cavity thickness during end diastole using the parasternal long-axis view obtained from the right side of the rat.

rat model of PAH [3] = experiment: PA pressure by right heart catheterization in MCT rat model of PAH; format: in vivo; conditions: intratracheal, twice weekly, 2 mg/ml in PBS, day 42, relative to MCT injection PAH model
Method: (§2) PAH was induced in adult male Sprague-Dawley rats (˜375 to 425 g, n=12, Harlan Laboratories) by a single, subcutaneous injection of monocrotnil (MCT) (60 mg/kg; n=24). Schultze, A. E. and Roth, R. A. J. Toxicol. Environ. Health. B, Crit. Rev. 1(4): 271-346 (1998). The animals injected with MCT were randomly assigned to 2 groups that received intratracheal (I.T.) aerosol instillation (MicroSprayer® Aerosolizer Model IA-1B, PennCentury, Inc.) of PBS twice weekly (200 μl; n=6), and a second group received IT. aerosol instillation of Cerivastatin twice weekly (2 mg/ml in PBS; n=6 I.T. instillations of PBS and Cerivastatin were administered the day of MCT injection until the rats were euthanized on day 42.
Echocardiography was performed at day 14, 28, and 42. Right heart catheterization was performed on day 42 before being euthanized. Sedation was induced by placing the rat in an anesthesia induction chamber with gas flow at 1 l/min, and the isoflurane was delivered via vaporizer at 3-4%. After induction, the rat was intubated and remained anesthetized with inhalant isoflurane at 1% for echo and 2% for right heart catheterization.
A 1.4-F micromanometer-tipped Millar pressure catheter (Millar Instruments) was used to measure systolic (sPAP), mean (mPAP), and diastolic PA pressure (dPAP) in all rats. […]

rat model of PAH [4] = experiment: RV hypertrophy (RV weight ratio) in MCT rat model of PAH; format: in vivo; conditions: intratracheal, twice weekly, 2 mg/ml in PBS, day 42, relative to MCT injection PAH model, FIG. 6
Method: as §2, with “42. After recording hemodynamic measurements and collecting blood, the animals were euthanized under deep anesthesia (isoflurane 5%) and the lungs and heart were isolated. The RV free wall was dissected from the left ventricle and interventricular septum (IVS), and the wet weight of each was recorded. RV hypertrophy was obtained as a RV weight/(LV+IVS weights) ratio.” for “42.”

SMILES	improvement of pulmonary arterial hypertension [1]	effect on the expression of DDAH2 (relative mRNA level) (DDAH2)	CCR2 expression (CCR2)	effect on the expression of DDAH1 (relative mRNA level) (DDAH1)	pulmonary artery acceleration time (PAAT) (rat model of PAH [2]; FIG. 7A (plotted in ms))	mean right ventricle thickening (RV cavity thickness) (rat model of PAH [2]; relative to MCT injection PAH model, FIGS. 5A and 5B)	PAAT as percent of the control (rat model of PAH [2]; MCT alone 40.5% of the control, FIG. 7B)	systolic pulmonary artery pressure (sPAP) (rat model of PAH [3]; FIG. 3)	mean pulmonary artery pressure (mPAP) (rat model of PAH [3]; FIG. 4)	right ventricular (RV) weight ratio (RV/(LV+septum)) (rat model of PAH [4])
CC(C)c1c(C(=O)Nc2ccccc2)c(-c2ccccc2)c(-c2ccc(F)cc2)n1CC[C@@H](O)C[C@@H](O)CC(=O)O [atorvastatin]	not									
COCc1c(C(C)C)nc(C(C)C)c(/C=C/[C@@H](O)C[C@@H](O)CC(=O)O)c1-c1ccc(F)cc1 [cerivastatin, (3R,5S,6E)-7-[4-(4-fluorophenyl)-5-(methoxymethyl)-2,6-bis(propan-2-yl)pyridin-3-yl]-3,5-dihydroxyhept-6-enoic acid]		more than 600%	reduces CCR2	relatively small and non-concentration dependent effect	significantly increased	significantly reduced	60.7 % of the control	statistically significant decrease	statistically significant decrease	significantly reduced
